Molecular target: T1, GSPT1 (Homo sapiens, UniProt P15170+Q96SW2)
T1 construct: host or cells: HEK293 LgBiT cell line
Assay: GSPT1 HiBit degradation assay
Type: cell-based
Conditions: Table 3; HEK293 LgBiT cells expressing GSPT1_HiBiT, luminescence after 6 hours
Excerpt: Promega developed a HEK293 cell line that constitutively expresses LgBiT protein and GSPT1_HiBiT fusion protein. When both proteins are present, the HiBiT portion of the fusion protein combines with LgBiT protein to form a functional luciferase enzyme. Endurazine, a cell permeable small molecule, is converted by cellular esterases into furimazine, which the luciferase enzyme uses as a substrate to generate luminescence. When GSPT1 is degraded, the HiBit is also degraded. This prevents formation of fully functional luciferase, leading to a loss in luminescence. GSPT1 degradation therefore correlates with a decrease in luminescence and can be measured continuously over time. The concentration of compound at which 50% GSPT1 degradation occurs (DC50) was calculated using this system.
• HEK293 LgBiT Cell line (Promega Custom) • Endurazine Substrate (Promega Cat. #N2570) • DMEM (Gibco Cat. #11995) • Penicillin/Streptomycin (Gibco Cat. #15140-122) • Heat Inactivated Fetal Bovine Serum (Gibco Cat. #A38400-01) • Hygromycin B (Gibco Cat. #10-687-010) • 384 Well TC Treated White Microplate (Perkin Elmer Cat. #6007680)
HEK293 LgBiT cells were cultured in DMEM Media supplemented with 10% FBS, 5% Pen/Strep, 200 μg/ml hygromycin and stored in an incubator set at 37° C. and 5% CO2. 18-24 hours prior to compound treatment, HEK293 LgBiT cells were seeded at 1000 cells/well in a 384-well microplate in 25 μl complete media. The plate was spun at 300 g for 30 seconds and stored in the incubator overnight. The next day, compounds were titrated in DMSO and added to media supplemented with endurazine substrate. A 25 ul aliquot of 2× compound/endurazine in media were then added to the 384-well microplate with seeded cells. (Endurazine was used at a final concentration of 0.5×). The plate was spun at 300 g for 30 seconds and stored in the incubator. After 6 hours the plate was read on a Perkin Elmer MultiMode Plate Reader Envision 2105 to measure luminescence signal.

T1 sequence (P15170 whole entry): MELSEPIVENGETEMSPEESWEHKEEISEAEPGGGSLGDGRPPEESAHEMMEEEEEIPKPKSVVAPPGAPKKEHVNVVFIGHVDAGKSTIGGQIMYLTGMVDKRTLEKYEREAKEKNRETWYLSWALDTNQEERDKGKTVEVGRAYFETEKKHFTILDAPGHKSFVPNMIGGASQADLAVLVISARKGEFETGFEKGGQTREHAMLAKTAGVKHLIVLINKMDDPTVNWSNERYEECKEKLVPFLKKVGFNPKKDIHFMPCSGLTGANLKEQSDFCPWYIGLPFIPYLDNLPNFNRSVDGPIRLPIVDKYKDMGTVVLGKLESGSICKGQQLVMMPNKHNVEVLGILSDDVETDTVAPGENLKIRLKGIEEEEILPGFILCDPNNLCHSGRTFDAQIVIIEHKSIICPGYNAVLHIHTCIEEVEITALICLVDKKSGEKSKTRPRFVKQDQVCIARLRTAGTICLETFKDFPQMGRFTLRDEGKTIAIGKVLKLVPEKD
T1 sequence (Q96SW2 whole entry): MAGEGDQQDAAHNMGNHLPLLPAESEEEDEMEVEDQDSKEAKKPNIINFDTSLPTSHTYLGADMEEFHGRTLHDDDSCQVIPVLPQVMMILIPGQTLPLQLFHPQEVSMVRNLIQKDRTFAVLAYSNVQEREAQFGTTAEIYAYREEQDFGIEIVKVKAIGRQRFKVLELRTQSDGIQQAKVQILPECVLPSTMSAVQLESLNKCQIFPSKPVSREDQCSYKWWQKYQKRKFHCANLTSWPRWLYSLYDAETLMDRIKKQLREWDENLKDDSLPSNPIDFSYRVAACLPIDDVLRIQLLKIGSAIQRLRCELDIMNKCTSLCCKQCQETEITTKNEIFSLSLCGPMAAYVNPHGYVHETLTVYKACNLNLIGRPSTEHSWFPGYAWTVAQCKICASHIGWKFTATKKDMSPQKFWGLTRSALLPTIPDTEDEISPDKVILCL
T1 sequence (Q16531 whole entry partner): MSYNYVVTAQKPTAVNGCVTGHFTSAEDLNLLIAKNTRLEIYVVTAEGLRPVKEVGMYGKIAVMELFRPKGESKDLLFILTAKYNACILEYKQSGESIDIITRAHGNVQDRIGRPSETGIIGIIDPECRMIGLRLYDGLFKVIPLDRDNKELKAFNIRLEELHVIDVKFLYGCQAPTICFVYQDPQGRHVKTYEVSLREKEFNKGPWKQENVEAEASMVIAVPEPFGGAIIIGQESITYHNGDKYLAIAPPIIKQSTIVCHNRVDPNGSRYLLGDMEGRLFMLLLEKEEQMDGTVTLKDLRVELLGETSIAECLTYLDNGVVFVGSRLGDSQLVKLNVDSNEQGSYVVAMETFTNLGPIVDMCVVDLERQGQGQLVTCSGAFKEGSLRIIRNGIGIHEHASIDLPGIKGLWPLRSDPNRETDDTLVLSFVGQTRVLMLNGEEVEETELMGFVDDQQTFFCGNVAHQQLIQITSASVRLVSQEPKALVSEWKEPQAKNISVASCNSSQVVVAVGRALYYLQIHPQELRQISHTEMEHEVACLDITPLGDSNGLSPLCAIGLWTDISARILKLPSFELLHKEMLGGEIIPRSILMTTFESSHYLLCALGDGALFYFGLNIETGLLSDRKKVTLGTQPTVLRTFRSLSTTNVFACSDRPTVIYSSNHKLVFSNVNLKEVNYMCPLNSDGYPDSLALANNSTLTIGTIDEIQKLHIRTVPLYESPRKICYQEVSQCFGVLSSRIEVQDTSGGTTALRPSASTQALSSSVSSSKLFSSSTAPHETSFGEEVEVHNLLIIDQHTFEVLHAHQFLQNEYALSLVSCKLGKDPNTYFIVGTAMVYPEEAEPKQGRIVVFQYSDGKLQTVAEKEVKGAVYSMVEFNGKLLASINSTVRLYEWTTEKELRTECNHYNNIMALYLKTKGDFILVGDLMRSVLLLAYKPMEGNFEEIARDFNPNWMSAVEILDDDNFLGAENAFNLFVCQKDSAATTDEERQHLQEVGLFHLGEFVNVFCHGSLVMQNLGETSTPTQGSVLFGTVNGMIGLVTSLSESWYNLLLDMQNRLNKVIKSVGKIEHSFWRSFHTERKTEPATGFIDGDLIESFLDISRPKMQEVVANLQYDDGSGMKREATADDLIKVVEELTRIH

Row | SMILES | DC50
1 | Cc1c(CC(=O)N(C)C)ccc(NC(=O)c2nn([C@H]3CCCN(C(=O)/C=C/CN(C)CCOCCOCCOCCOCCCCCCCCc4cc(Cl)cc(NC(=O)NCc5ccc6c(c5)CN(C5CCC(=O)NC5=O)C6=O)c4)C3)c3ncnc(N)c23)c1C (stereo partly drawn) [Compound I-64] | < 250 nM
2 | Cc1c(CC(=O)N(C)C)ccc(NC(=O)c2nn([C@H]3CCCN(C(=O)/C=C/CN(C)CCOCCOCCOCCOCCOCCOCCOCCOCCOCCOCCCCCCCCc4cc(Cl)cc(NC(=O)NCc5ccc6c(c5)CN(C5CCC(=O)NC5=O)C6=O)c4)C3)c3ncnc(N)c23)c1C (stereo partly drawn) [Compound I-66] | 250 to 5000 nM
3 | CCN(CCOCCOCCOCCOCCOCCOCCCCCCCCc1cc(Cl)cc(NC(=O)NCc2ccc3c(c2)CN(C2CCC(=O)NC2=O)C3=O)c1)CCOc1ccc(C(=O)c2c(-c3ccc(O)cc3)sc3cc(O)ccc23)cc1 (stereo not drawn) [Compound I-55] | < 250 nM

Second part, the molecule after the results:

Row | DC50 | SMILES
4 | < 250 nM | C=C(F)C(=O)N1CCN(c2nc(OC[C@H]3CCCN3CCCOCCOCCOCCOCCOCCOCCCCCCCCc3cc(Cl)cc(NC(=O)NCc4ccc5c(c4)CN(C4CCC(=O)NC4=O)C5=O)c3)nc3c2CCN(c2cccc4cccc(Cl)c24)C3)C[C@H]1CC#N (stereo partly drawn) [Compound I-71]
5 | > 10000 nM | CCN(CCOCCOCCOCCOCCOCCOCCCCCCCCCCCCCCc1cc(Cl)cc(NC(=O)NCc2ccc3c(c2)CN(C2CCC(=O)NC2=O)C3=O)c1)CCOc1ccc(C(=O)c2c(-c3ccc(O)cc3)sc3cc(O)ccc23)cc1 (stereo not drawn) [Compound I-56]
6 | < 250 nM | C=CC(=O)Nc1cc(Nc2nccc(-c3cn(C)c4ccccc34)n2)c(OC)cc1N(C)CCN(C)CCOCCOCCOCCOCCOCCOCCOCCOCCOCCOCCCCCCCCc1cc(Cl)cc(NC(=O)NCc2ccc3c(c2)CN(C2CCC(=O)NC2=O)C3=O)c1 (stereo not drawn) [Compound I-63]

Same assay, conditions: Table 3A; HEK293 LgBiT cells expressing GSPT1_HiBiT, luminescence after 6 hours

Row | SMILES | DC50
7 | Cc1c(NC(=O)c2ccc(C3CC3)cc2F)cc(F)cc1-c1ncnc(N)c1OCCN(C)C(=O)/C=C/CN(C)CCOCCOCCOCCOCCOCCCCCc1cc(Cl)cc(NC(=O)NCc2ccc3c(c2)CN(C2CCC(=O)NC2=O)C3=O)c1 (stereo not drawn) [Compound I-105] | < 250 nM
8 | C=C(F)C(=O)N1CCN(c2nc(OC[C@@H]3CCCN3CCCOCCOCCOCCOCCOCCCCCc3ccc(Cl)cc3NC(=O)NCc3ccc4c(c3)CN(C3CCC(=O)NC3=O)C4=O)nc3c2CCN(c2cccc4cccc(Cl)c24)C3)C[C@@H]1CC#N (stereo partly drawn) [Compound I-140] | 250 to 5000 nM
9 | CCC(=O)N1CCN(c2nc(OC[C@@H]3CCCN3CCOCCOCCOCCOCCOCCOCCOCCOCCOCCOCCOCCOCCOCCOCCCCCCCCc3cc(Cl)cc(NC(=O)NCc4ccc5c(c4)CN(C4CCC(=O)NC4=O)C5=O)c3)nc3c2CCN(c2cccc4cccc(Cl)c24)C3)C[C@@H]1CC#N (stereo partly drawn) [Compound I-106] | 250 to 5000 nM
10 | Cc1ccc(NC(=O)NC(CCCCCOCCOCCOCCN(C)C/C=C/C(=O)N2CCN(c3nc(OC[C@@H]4CCCN4C)nc4c3CCN(c3cccc5cccc(Cl)c35)C4)C[C@@H]2CC#N)c2ccc3c(c2)CN(C2CCC(=O)NC2=O)C3=O)cc1Cl (stereo partly drawn) [Compound I-115] | 5000 to 10000 nM
11 | Nc1ncnc2c1c(-c1ccc(Oc3ccccc3)cc1)nn2[C@@H]1CCCN(C(=O)/C=C/COCCOCCOCCOCCOCCCCCCCCc2cc(Cl)cc(NC(=O)NCc3ccc4c(c3)CN(C3CCC(=O)NC3=O)C4=O)c2)C1 (stereo partly drawn) [Compound I-82] | < 250 nM
12 | C=C(F)C(=O)N1CCN(c2nc(OC[C@@H]3CCCN3CCCOCCOCCOCCOCCOCCOCCOCCOCCCCCCCCc3cc(Cl)cc(NC(=O)NCc4ccc5c(c4)CN(C4CCC(=O)NC4=O)C5=O)c3)nc3c2CCN(c2cccc4cccc(Cl)c24)C3)C[C@@H]1CC#N (stereo partly drawn) [Compound I-78] | < 250 nM
13 | Nc1ncnc2c1c(-c1ccc(Oc3ccccc3)cc1)nn2[C@@H]1CCCN(C(=O)/C=C/COCCOCCOCCOCCOCCOCCOCCOCCOCCCCCCCCc2cc(Cl)cc(NC(=O)NCc3ccc4c(c3)CN(C3CCC(=O)NC3=O)C4=O)c2)C1 (stereo partly drawn) [Compound I-93] | < 250 nM
14 | Cc1c(CC(=O)N(C)C)ccc(NC(=O)c2nn([C@@H]3CCCN(C(=O)/C=C/CN(C)CCOCCOCCOCCOCCOCCOCCc4cc(Cl)cc(NC(=O)NCc5ccc6c(c5)CN(C5CCC(=O)NC5=O)C6=O)c4)C3)c3ncnc(N)c23)c1C (stereo partly drawn) [Compound I-23, 4-amino-1-[(3R)-1-[(E)-4-[2-[2-[2-[2-[2-[2-[2-[3-chloro-5-[[2-(2,6-dioxo-3-piperidyl)-1-oxo-isoindolin-5-yl]methylcarbamoylamino]phenyl]ethoxy]ethoxy]ethoxy]ethoxy]ethoxy]ethoxy]ethyl-methyl-amino]but-2-enoyl]-3-piperidyl]-N-[4-[2-(dimethylamino)-2-oxo-ethyl]-2,3-dimethyl-phenyl]pyrazolo [3,4-d]pyrimidine-3-carboxamide] | > 10000 nM
15 | CCC(=O)N1CCN(c2nc(OC[C@@H]3CCCN3CCOCCOCCOCCOCCOCCOCCOCCOCCOCCOCCOCCOCCOCCOCCCCCCCCc3cc(Cl)cc(NC(=O)NCc4ccc5c(c4)CN(C4CCC(=O)NC4=O)C5=O)c3)nc3c2CCN(c2cccc4cccc(Cl)c24)C3)CC1CC#N (stereo partly drawn) [Compound I-103] | 250 to 5000 nM
16 | C=C(F)C(=O)N1CCN(c2nc(OC[C@@H]3CCCN3CCCOCCOCCOCCOCCOCCOCCOCCOCCOCCOCCCCCCCCc3cc(Cl)cc(NC(=O)NCc4ccc5c(c4)CN(C4CCC(=O)NC4=O)C5=O)c3)nc3c2CCN(c2cccc4cccc(Cl)c24)C3)C[C@@H]1CC#N (stereo partly drawn) [Compound I-80] | 250 to 5000 nM
17 | C=C(F)C(=O)N1CCN(c2nc(OC[C@@H]3CCCN3CCCOCCOCCOCCOCCOCCCCCc3cc(Cl)cc(NC(=O)NCc4ccc5c(c4)CN(C4CCC(=O)NC4=O)C5=O)c3)nc3c2CCN(c2cccc4cccc(Cl)c24)C3)C[C@@H]1CC#N (stereo partly drawn) [Compound I-133] | 250 to 5000 nM
18 | Cc1c(NC(=O)c2ccc(C3CC3)cc2F)cc(F)cc1-c1ncnc(N)c1OCCN(C)C(=O)/C=C/CN(C)CCOCCOCCOCCOCCOCCOCCOCCOCCOCCCCCc1cc(Cl)cc(NC(=O)NCc2ccc3c(c2)CN(C2CCC(=O)NC2=O)C3=O)c1 (stereo not drawn) [Compound I-129] | 250 to 5000 nM
19 | COc1cc(N2CCN(C(=O)COCCOCCOCCOCCOCCCCCc3cc(Cl)cc(NC(=O)NCc4ccc5c(c4)CN(C4CCC(=O)NC4=O)C5=O)c3)CC2)ccc1Nc1ncc(Cl)c(Nc2ccccc2P(C)(C)=O)n1 (stereo not drawn) [Compound I-119] | 250 to 5000 nM

Other lines, results leading:

Row | DC50 | SMILES
20 | 250 to 5000 nM | C=CC(=O)Nc1cc(Nc2nccc(-c3cn(C)c4ccccc34)n2)c(OC)cc1N(C)CCN(C)CCOCCOCCOCCOCCOCCOCCOCCCCCc1cc(Cl)cc(NC(=O)NCc2ccc3c(c2)CN(C2CCC(=O)NC2=O)C3=O)c1 (stereo not drawn) [Compound I-139]
21 | < 250 nM | Cc1c(NC(=O)c2ccc(C3CC3)cc2F)cc(F)cc1-c1ncnc(N)c1OCCN(C)C(=O)/C=C/CN(C)CCOCCOCCOCCOCCOCCOCCCCCCCCc1cc(Cl)cc(NC(=O)NCc2ccc3c(c2)CN(C2CCC(=O)NC2=O)C3=O)c1 (stereo not drawn) [Compound I-97]
22 | 250 to 5000 nM | CN(C/C=C/C(=O)N1CCN(c2nc(OC[C@H]3CCCN3C)nc3c2CCN(c2cccc4cccc(Cl)c24)C3)C[C@@H]1CC#N)CCOCCOCCOCCOCCOCCOCCOCCOCCCCCCCCc1cc(Cl)cc(NC(=O)NCc2ccc3c(c2)CN(C2CCC(=O)NC2=O)C3=O)c1 (stereo partly drawn) [Compound I-86]
23 | 250 to 5000 nM | C=CC(=O)N1CCN(c2nc(=O)n(-c3c(C)cc(OCCOCCOCCOCCOCCOCCOCCOCCOCCOCCCCCc4cc(Cl)cc(NC(=O)NCc5ccc6c(c5)CN(C5CCC(=O)NC5=O)C6=O)c4)nc3C(C)C)c3nc(-c4c(O)cccc4F)c(F)cc23)[C@@H](C)C1 (stereo partly drawn) [Compound I-154]
24 | < 250 nM | Nc1ncnc2c1c(-c1ccc(Oc3ccccc3)cc1)nn2[C@@H]1CCCN(C(=O)/C=C/COCCOCCOCCOCCOCCOCCOCCCCCCCCc2cc(Cl)cc(NC(=O)NCc3ccc4c(c3)CN(C3CCC(=O)NC3=O)C4=O)c2)C1 (stereo partly drawn) [Compound I-85]
